Earlier results on two compounds are cited in PMC5201331, “Subchronic Toxicities of HZ1006, a Hydroxamate-Based Histone Deacetylase Inhibitor, in Beagle Dogs and Sprague-Dawley Rats” (International Journal of Environmental Research and Public …, 2016).

The structures appear in SMILES notation.

Data set [1] relates to patients. Further details: method as in PMID 12440223. The following applies: day-1 and -5 schedule every 21 days; cited from earlier work.
Data set [2] concerns dogs. Further details: method as in PMID 19903873. The following applies: 26 weeks orally dosed daily with 4-week recovery; cited from earlier work.
The test system of data set [3] is rats. Further details: method as in PMID 19903873. The following applies: rats, 20, 50 or 150 mg/kg/day, 26 weeks orally dosed daily with 4-week recovery; cited from earlier work.

`C/C=C1\NC(=O)[C@H]2CSSCC/C=C/[C@H](CC(=O)N[C@H](C(C)C)C(=O)N2)OC(=O)[C@H](C(C)C)NC1=O` [depsipeptide]: the MTD in data set [1] is reported as 17.8 mg/m^2.

Consider `O=C(CCCCCCC(=O)Nc1ccccc1)NO` [vorinostat, suberoylanilide hydroxamic acid], for which the “no-observed adverse effect level” value in data set [2] is recorded as 60 mg/kg/day; in data set [3], “not established”.
